From patent publication US20210169992A1, “COMPOSITIONS AND METHODS FOR INHIBITING THE PRODUCTION OR ACTIVITY OF D-2HYDROXYGLUTARATE IN SUBJECTS AFFLICTED WITH CANCER” (President and Fellows of Harvard College, priority 2019, published 2021) come the findings set out here.

Entries after “also recorded” stand apart in the source; their conditions may differ.

Common to all, as to type: cell-based
Assay [1] has as its system T cells. Put plainly: Mitochondrial membrane potential by TMRE staining in T cells. As to conditions: FIG. 4, FIG. 7. The text has this: (§1) H2O2 and NAC were used as positive and negative controls, respectively. *P<0.05, **P<0.01, ***P<0.001, ****P<0.0001 (Two-way ANOVA).
Assay [2] has as its system T cells. Put plainly: Mitochondrial respiration / electron transport chain function in T cells. As to conditions: D-2HG treated T cells, stress conditions.
Text: as §1

Assay [3] relates to T cells. In words: Metabolite profiling during time course of T cell activation with and without D-2HG. As to conditions: T cells activated with vs without D-2HG; FIG. 1. The text has this:
Log 2 fold change was normalized to the average levels of control group.

The test system of assay [4] is T cells. Put plainly: Effector function and antigen specific killing assay, OT-1 T cells against B16 OVA+ or OVA− tumor cells. The text has this: Data were normalized to cell number. […] Data were normalized to cell number.
The test system of assay [5] is T cells. Put plainly: ROS levels following 24 hour treatment. The note with it: FIG. 7.
Text: as §1

For assay [6], the system named is T cells. In words: D-2HG uptake in T cells.
Text: as §1

A further assay deals with T1, D2HGDH (Homo sapiens, UniProt Q8N465).
T1 construct: endogenous in cells
T1 sequence (Q8N465 14-521): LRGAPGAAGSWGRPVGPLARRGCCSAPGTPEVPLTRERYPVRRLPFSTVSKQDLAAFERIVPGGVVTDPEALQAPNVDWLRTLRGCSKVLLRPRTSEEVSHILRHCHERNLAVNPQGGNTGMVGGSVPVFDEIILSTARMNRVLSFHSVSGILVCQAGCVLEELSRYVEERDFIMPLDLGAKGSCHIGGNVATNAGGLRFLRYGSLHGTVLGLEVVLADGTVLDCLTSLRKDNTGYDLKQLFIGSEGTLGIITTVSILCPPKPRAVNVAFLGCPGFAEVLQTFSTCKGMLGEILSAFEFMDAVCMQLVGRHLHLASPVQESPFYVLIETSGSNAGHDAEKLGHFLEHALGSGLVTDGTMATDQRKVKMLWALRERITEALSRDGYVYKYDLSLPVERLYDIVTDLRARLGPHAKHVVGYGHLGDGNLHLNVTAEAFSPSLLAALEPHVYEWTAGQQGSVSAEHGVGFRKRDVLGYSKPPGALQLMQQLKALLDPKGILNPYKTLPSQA
In words: Isotope tracing of uniformly carbon labeled D-2HG into the TCA cycle. As to conditions: FIG. 8.

The subject of assay [7] is T cells. In words: T cell proliferation upon activation by Cell Trace Violet staining. The note with it: different concentrations of D-2HG, FIG. 6.
The subject of the next assay is GL261 cells. In words: Mitochondrial membrane potential by TMRE staining in GL261 cells. As to conditions: cancer cells (GL261); FIG. 3. How it is done:
Mitochondrial membrane potential was measured by TMRE staining in control, D-2HG, and L-2HG treated GL261 cells.

For assay [8], the system named is T cells. In words: TCA cycle metabolite levels after 48 hour treatment upon T cell activation. The note with it: FIG. 2. On the procedure:
A 2 day treatment of 1 mM NMN was used as a positive control. *P<0.05, **P<0.01 (Student's t test and two-way ANOVA).

Assay [9] concerns T cells. In words: Apoptosis by Annexin and PI staining. The note with it: after 24 hours of treatment; FIG. 6.

Regarding `N#CC(C#N)=NNc1ccc(OC(F)(F)F)cc1` [FCCP, reference compound], in the assay with T cells [1], the “mitochondrial membrane potential (TMRE)” value was “decouples membrane potential in both control and D-2HG treated conditions”.

On to `O=C(O)CC[C@@H](O)C(=O)O` [D-2HG, D-2hydroxyglutarate], for which the ETC function entry with T cells [2] is “ETC function is impaired under stress conditions”. In addition, in the assay with T cells [3], the “effect on T cell metabolism upon activation” value is listed as “causes broad changes in T cell metabolism upon activation”. Besides, the “mitochondrial membrane potential (TMRE)” value in the assay on T cells [1] is listed as “causes mitochondrial hyperpolarization”; with GL261 cells, “mild effect on mitochondrial membrane potential”. For the same compound, the “expression of effector markers” value in the assay with T cells [4] (D-2HG treated T cells) is reported as “increased expression of effector markers”. For the same compound, the “antitumor activity / killing by treated T cells” value with T cells [4] (T cells activated in presence of D-2HG, FIG. 9) is given as “reduced killing; also recorded: results in the generation of effector T cells with inferior antitumor activity”. Moreover, the ROS production result in the assay with T cells [5] was “increased ROS production”. In the assay with T cells [6], the “uptake by T cells” value is listed as “is taken up by T cells”. Besides, the “metabolism of D-2HG” value on D2HGDH is on record as “is metabolized by D2HGDH”. For the same compound, the T cell proliferation result with T cells [7] was “slows down proliferation”. The “TCA cycle metabolite levels” value with T cells [8] is listed as “causes accumulation of TCA cycle metabolites”. In addition, the apoptosis result in the assay on T cells [9] was “promotes apoptosis”.
